# Experimental data as given in ChEMBL document CHEMBL6078661, “Alkaloids from Mackinlaya species and synthetic mackinazolinone derivatives: An overview” (Bioorg Med Chem, 2025).
# Legend:
# [1] = test system: Naegleria fowleri; test: Antiparasitic activity against Naegleria fowleri NF69 (ATCC 30215) assessed as parasitic growth inhibition at 10 uM incubated for 48 hrs by CellTiter-Glo based BioTek microplate reader analysis relative to control; type: functional; set-up: scale not given: the % may be the effect or the level left
# [2] = test system: HeLa; test: Antiproliferative activity against human HeLa cells assessed as inhibition of cell proliferation; type: functional, cell-based
# [3] = molecular target: Acetylcholinesterase (Homo sapiens, UniProt P22303); test: Competitive inhibition of AChE (unknown origin)
# [4] = test system: Staphylococcus aureus; test: Antibacterial activity against Staphylococcus aureus assessed as diameter of inhibition zone; type: functional
# [5] = test system: Escherichia coli; test: Antibacterial activity against Escherichia coli assessed as diameter of inhibition zone; type: functional
# [6] = test system: Bacillus cereus; test: Antibacterial activity against Bacillus cereus assessed as diameter of inhibition zone; type: functional
# [7] = test system: Pseudomonas aeruginosa; test: Antibacterial activity against Pseudomonas aeruginosa assessed as diameter of inhibition zone; type: functional
# [8] = test system: HeLa; test: Cytotoxicity against human HeLa cells assessed as reduction in cell viability; type: functional, cell-based
# [9] = test system: A549; test: Cytotoxicity against human A549 cells assessed as reduction in cell viability; type: functional
# [10] = test system: MCF7; test: Cytotoxicity against human MCF7 cells assessed as reduction in cell viability; type: functional, cell-based
# Chain of Acetylcholinesterase (P22303 whole entry): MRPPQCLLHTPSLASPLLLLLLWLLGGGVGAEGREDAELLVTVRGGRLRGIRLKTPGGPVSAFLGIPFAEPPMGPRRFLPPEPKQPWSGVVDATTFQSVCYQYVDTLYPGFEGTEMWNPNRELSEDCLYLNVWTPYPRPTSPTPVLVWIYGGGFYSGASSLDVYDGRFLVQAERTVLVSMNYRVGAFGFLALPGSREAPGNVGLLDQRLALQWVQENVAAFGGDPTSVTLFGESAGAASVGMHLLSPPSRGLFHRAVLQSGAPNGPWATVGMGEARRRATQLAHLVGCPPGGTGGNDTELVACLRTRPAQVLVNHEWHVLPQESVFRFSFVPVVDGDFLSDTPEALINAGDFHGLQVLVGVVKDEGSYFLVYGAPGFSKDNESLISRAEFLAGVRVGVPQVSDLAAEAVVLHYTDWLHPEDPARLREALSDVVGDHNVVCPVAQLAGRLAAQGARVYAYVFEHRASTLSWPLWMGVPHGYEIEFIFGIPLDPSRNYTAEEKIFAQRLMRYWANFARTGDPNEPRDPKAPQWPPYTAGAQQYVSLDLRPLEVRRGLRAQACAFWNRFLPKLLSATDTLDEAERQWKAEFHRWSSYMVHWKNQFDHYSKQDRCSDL
structure (smiles),measurement,setting,value
CN1CCC[C@@H]2c3nc4cc(C(F)(F)F)ccc4c(=O)n3CC[C@H]21,Activity,[1],96.8%
CN1CCC[C@H]2c3nc4ccc(C#N)cc4c(=O)n3CC[C@H]21,Activity,[1],98.2%
COc1ccc(/C=C2\CCCn3c2nc2oc(-c4ccc(F)cc4)cc2c3=O)cc1OC,IC50,[2],8460 nM
CN1CCC[C@@H]2c3nc4ccc(Cl)cc4c(=O)n3CC[C@H]21,Activity,[1],98.1%
O=c1c2nc(-c3ccc(C(F)(F)F)cc3)sc2nc2n1CCCC2,IC50,[3],1670 nM
O=C1c2ccccc2NC2=C(/C=N/c3ccccc3O)CCCN12,diameter of the inhibition zone (DIZ),[4],18 mm
same,diameter of the inhibition zone (DIZ),[5],6 mm
same,diameter of the inhibition zone (DIZ),[6],18 mm
same,diameter of the inhibition zone (DIZ),[7],18 mm
O=c1c2nc(-c3cc(Cl)cc(Cl)c3)oc2nc2n1CCCC2,IC50,[8],3060 nM
same,Activity,[9],0.75 µM
same,IC50,[10],2290 nM
